In PubChem BioAssay AID849 (SRMLSC, 2007):
Active and inactive are the calls of the source. The rule behind the calls is not given here.

The molecules below were run on Saccharomyces cerevisiae lifespan shortening, growth inhibition (assay: yeast lifespan shortening compounds, dose response (AID 849);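 note: yeast growth read as optical density after two days at 30 degrees C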).

**Q.** For `Cc1ccc2nc(/C(C#N)=C\c3ccc([N+](=O)[O-])o3)[nH]c2c1`, which IC50 is on record?
**A.** 18.9 µM

**Q.** How did the IC50 turn out when `Cc1cc(OCc2ccc(C(=O)NN=C3CCCC3)cc2)ccc1Cl` was run?
**A.** 43.6 µM

**Q.** How did the IC50 turn out when `CCn1c(=O)c(C(=O)Nc2nc3ccccc3[nH]2)c(O)c2ccccc21` was run?
**A.** > 100 µM (inactive)

**Q.** Which IC50 does the source give for `S=C1SCN(Cc2ccccn2)CN1Cc1ccco1` here?
**A.** 21.3 µM

**Q.** How did the IC50 turn out when `Cc1nnc(NC(=O)CSc2nnc(Cc3cccn3C)n2-c2ccccc2)s1` was run?
**A.** > 100 µM (inactive)

**Q.** `OC(CNCCC1C=Nc2ccccc21)Cn1c2ccc(Cl)cc2c2cc(Cl)ccc21` (centres undefined) was tested. Which IC50 did it give?
**A.** 20 µM

**Q.** How did the IC50 turn out when `O=c1cc(-c2ccccc2)[nH]n1-c1nc2ccccc2[nH]1` was run?
**A.** 12.2 µM

**Q.** Which IC50 does the source give for `CC(C)N=c1scc(-c2cccs2)n1/N=C/c1ccc(O)c(O)c1O` here?
**A.** > 100 µM (inactive)

**Q.** For `Cc1ccc2nc(-c3ccc(NS(C)(=O)=O)cc3)cc(-c3ccccc3)c2c1`, which IC50 is on record?
**A.** 43.2 µM

**Q.** How did the IC50 turn out when `c1ccc(-c2ccc(C(c3ccccc3)n3ccnc3)cc2)cc1` (centres undefined) was run?
**A.** 1.67 µM

**Q.** Which IC50 does the source give for `Cc1ccc(O)c(-c2cc(-c3cccc(F)c3)n[nH]2)c1` here?
**A.** 19.3 µM

**Q.** For `Cc1cccc(C(=O)CC(=O)c2cc(Cl)ccc2O)c1`, which IC50 is on record?
**A.** 45.7 µM

**Q.** How did the IC50 turn out when `COc1ccc(CNC(=O)CSc2nnc(-c3ccc(NC(C)=O)cc3)n2C)cc1` was run?
**A.** > 100 µM (inactive)

**Q.** For `CCSc1ncc(/C=N/Nc2ccc(Cl)cc2)n1C`, which IC50 is on record?
**A.** 36.7 µM

**Q.** `Clc1cccc(CN2COc3c(cc(Cl)c4cccnc34)C2)c1` was tested. Which IC50 did it give?
**A.** 7.28 µM

**Q.** `Cc1ccc(NC(=O)ON=C2CCCC2)cc1` was tested. Which IC50 did it give?
**A.** 9.19 µM

**Q.** For `Oc1cccc2ccc(Nc3ccccn3)nc12`, which IC50 is on record?
**A.** 14 µM

**Q.** `CC(NC(=O)Nc1ccc(Cl)cc1)C(c1cccs1)N1CCOCC1` (centres undefined) was tested. Which IC50 did it give?
**A.** > 100 µM (inactive)

**Q.** `N#C/C(=C/c1cn(-c2ccccc2)nc1-c1cccc(OCc2ccc(F)cc2)c1)C(=O)NCCCn1ccnc1` was tested. Which IC50 did it give?
**A.** > 100 µM (inactive)

**Q.** `c1ccc2c(c1)nnn1c3ccccc3nc21` was tested. Which IC50 did it give?
**A.** > 100 µM (inactive)

**Q.** How did the IC50 turn out when `O=C(CSCc1ccco1)Nc1cc(C(F)(F)F)ccc1N1CCOCC1` was run?
**A.** > 100 µM (inactive)

**Q.** How did the IC50 turn out when `COCCN1CSC(=S)N(Cc2ccco2)C1` was run?
**A.** 20.1 µM

**Q.** `O=C(NC1CCCCC1)Sc1ccc(Cl)cc1` was tested. Which IC50 did it give?
**A.** > 100 µM (inactive)

**Q.** For `c1ccc(-c2csc3nnc(SCc4ccc5c(c4)OCO5)n23)cc1`, which IC50 is on record?
**A.** > 100 µM (inactive)

**Q.** `COc1cccc(/C=N/N2C(=O)CSC2=S)c1O` was tested. Which IC50 did it give?
**A.** > 100 µM (inactive)

**Q.** `C=CCC1c2cccc(C(=O)O)c2C(=O)N1c1cccc(C)c1` (centres undefined) was tested. Which IC50 did it give?
**A.** 2.79 µM

**Q.** With `Cc1nn2c(-c3ccncc3)nnc2c2ccccc12` as the molecule, how does the IC50 read?
**A.** 6.35 µM

**Q.** With `Oc1c(Br)cc(Br)cc1C=Nc1ccc2c(c1)OCO2` as the molecule, how does the IC50 read?
**A.** > 100 µM (inactive)

**Q.** `O=C1CN(CC(=O)N2CCCCC2)c2ccccc2O1` was tested. Which IC50 did it give?
**A.** 43.3 µM

**Q.** Which IC50 does the source give for `Cc1cc(C)c2c(N=NN3CCCCC3)[nH]nc2n1` here?
**A.** 5.02 µM

**Q.** How did the IC50 turn out when `O=C(CCCSc1ccccc1)Nc1nc(-c2ccccn2)cs1` was run?
**A.** 50.5 µM

**Q.** `Cn1cccc1C(=O)Nc1nc(-c2ccccn2)cs1` was tested. Which IC50 did it give?
**A.** 33.7 µM

**Q.** `Cc1cc2nc(C)n3c4ccccc4nc3n2n1` was tested. Which IC50 did it give?
**A.** 15.4 µM

**Q.** For `CCc1ccc(/C=C/C(=O)c2cc(Br)ccc(=O)c2O)cc1`, which IC50 is on record?
**A.** 9.89 µM

**Q.** `Oc1c(CN2CCN(c3ccc(F)cc3)CC2)cc(Cl)c2cccnc12` was tested. Which IC50 did it give?
**A.** 10.2 µM

**Q.** `O=C1c2ccccc2C(=O)N1Cc1ccco1` was tested. Which IC50 did it give?
**A.** > 100 µM (inactive)

**Q.** For `Cc1cc(C(=O)COC(=O)c2ccc[nH]c2=O)c(C)n1-c1ccccc1`, which IC50 is on record?
**A.** 21.3 µM

**Q.** Which IC50 does the source give for `c1ccc2c(c1)oc1c(N3CCOCC3)ncnc12` here?
**A.** 32.1 µM

**Q.** How did the IC50 turn out when `C=C(C)COc1ccc(-c2[nH]ncc2Oc2ccccc2OC)c(O)c1` was run?
**A.** > 100 µM (inactive)

**Q.** Which IC50 does the source give for `Cc1ccccc1NC(=S)c1nc2ccccc2[nH]1` here?
**A.** 29.5 µM

**Q.** For `N#C/C(=N/O)c1nc(-c2ccc(F)cc2)cs1`, which IC50 is on record?
**A.** 24.9 µM

**Q.** `Clc1ccc(CCNc2nc3ccccc3s2)cc1` was tested. Which IC50 did it give?
**A.** > 100 µM (inactive)

**Q.** `OC(CNCC1CCCO1)Cn1c2ccc(Br)cc2c2cc(Br)ccc21` (centres undefined) was tested. Which IC50 did it give?
**A.** > 100 µM (inactive)

**Q.** How did the IC50 turn out when `COc1ccc(/C(C)=N/NC(=O)c2ccc(CSc3cccc4cccnc34)cc2)cc1OC` was run?
**A.** > 100 µM (inactive)

**Q.** `COc1ccc(C(=O)C(C)(C)NO)cc1` was tested. Which IC50 did it give?
**A.** 33.7 µM

**Q.** `O=C1OCC(CO)(CO)N=C1NNc1ccc(Cl)c(Cl)c1` was tested. Which IC50 did it give?
**A.** 2.89 µM

**Q.** How did the IC50 turn out when `CCc1ccc2c(c1)C1(NN=C(c3ccccc3)S1)C(=O)N2` (centres undefined) was run?
**A.** 24.6 µM

**Q.** For `CN(C)CCNC=C(C(=O)Nc1ccc(Cl)cc1Cl)C(=O)Nc1ccc(Cl)cc1Cl`, which IC50 is on record?
**A.** 23.9 µM

**Q.** With `Cn1c(=O)c2nc(-c3ccccc3)oc2c2ccccc21` as the molecule, how does the IC50 read?
**A.** > 100 µM (inactive)

**Q.** Which IC50 does the source give for `O=C(N/N=C/c1cc2c3c(c1O)CCCN3CCC2)c1ccccc1O` here?
**A.** 37.5 µM

**Q.** Which IC50 does the source give for `CCCc1ccc(Oc2c(-c3ccc(O)c(C)c3O)n[nH]c2C)cc1` here?
**A.** 7.01 µM

**Q.** Which IC50 does the source give for `O=S(=O)(Cc1ccccc1)NCc1cccnc1` here?
**A.** > 100 µM (inactive)

**Q.** `CCOC(=O)c1c(/N=C/c2cc([N+](=O)[O-])ccc2O)sc(C)c1C` was tested. Which IC50 did it give?
**A.** 47.1 µM

**Q.** With `Cc1ccccc1C(=O)O/N=C/c1c(N2CCOCC2)n(C)c2ccccc12` as the molecule, how does the IC50 read?
**A.** 49.9 µM

**Q.** Which IC50 does the source give for `CCN1/C(=C(\O)c2ccccc2)C(=O)c2ccccc2S1(=O)=O` here?
**A.** > 100 µM (inactive)

**Q.** `CCCCOc1ccc(C(=O)NNC(=S)NC(=O)CC)cc1` was tested. Which IC50 did it give?
**A.** 41.5 µM

**Q.** How did the IC50 turn out when `CC(C)(C)n1nc(-c2ccc(F)cc2)c2c(N)ncnc21` was run?
**A.** < 0.098 µM

**Q.** `C/C(=N\Nc1nc2c(s1)CCCC2)c1ccccc1` was tested. Which IC50 did it give?
**A.** 31.9 µM

**Q.** `Cc1ccc(NN2C(=O)C=C(c3ccc(Cl)cc3)C2=O)cc1` was tested. Which IC50 did it give?
**A.** 18.4 µM

**Q.** How did the IC50 turn out when `O=C(Oc1csc(=S)n1C(=O)c1ccccc1)c1ccccc1` was run?
**A.** > 100 µM (inactive)

**Q.** How did the IC50 turn out when `CC(=O)c1c(C)oc2c1C(=O)c1ccccc1C2=O` was run?
**A.** > 100 µM (inactive)

**Q.** `Cc1cccc(OCCCCc2c(C)n[nH]c2C)c1C` was tested. Which IC50 did it give?
**A.** 38.1 µM

**Q.** With `Cc1cc(=O)[nH]c(-n2nc(C)cc2C)n1` as the molecule, how does the IC50 read?
**A.** 14.3 µM

**Q.** `O=C(O)c1cc2ccc3ccccc3c2oc1=O` was tested. Which IC50 did it give?
**A.** 20.6 µM

**Q.** `Cn1c(=O)c(C(=O)Nc2ncccn2)c(O)c2ccccc21` was tested. Which IC50 did it give?
**A.** 33 µM

**Q.** How did the IC50 turn out when `N#Cc1ccccc1NC(=O)c1ccc2c(Cl)c3c(nc2c1)CCCC3` was run?
**A.** > 100 µM (inactive)

**Q.** How did the IC50 turn out when `CC(=O)O/N=C/c1c(N2CCOCC2)n(C)c2ccccc12` was run?
**A.** 12.4 µM

**Q.** Which IC50 does the source give for `Cc1cccc(OCCCOc2cccc3cccnc23)c1C` here?
**A.** 26.5 µM

**Q.** With `CN1C(=O)/C(=N/OC(=O)c2ccccc2)c2ccccc21` as the molecule, how does the IC50 read?
**A.** > 100 µM (inactive)

**Q.** For `Cc1ccc(N=Nc2ccc(O)c3ncccc23)cc1`, which IC50 is on record?
**A.** 34.3 µM

**Q.** With `Oc1c(Br)cc(Cl)cc1C=Nc1ccccc1Br` as the molecule, how does the IC50 read?
**A.** 27.1 µM

**Q.** `COc1ccc2c(c1)S/C(=C\C(=O)c1ccncc1)N2C` was tested. Which IC50 did it give?
**A.** 5.32 µM

**Q.** How did the IC50 turn out when `c1ccc(Cc2nnc3sc(-c4ccc5c(c4)OCCO5)nn23)cc1` was run?
**A.** > 100 µM (inactive)

**Q.** Which IC50 does the source give for `COC(=O)CSC1=NS(=O)(=O)c2ccccc21` here?
**A.** > 100 µM (inactive)

**Q.** With `COc1ccc(OC)c(-c2c3cc(O)c(=O)cc-3oc3cc(O)c(O)cc23)c1` as the molecule, how does the IC50 read?
**A.** 30.1 µM

**Q.** Which IC50 does the source give for `COc1ccc(-c2n[nH]c(C(F)(F)F)c2-c2cc3ccccc3o2)c(O)c1` here?
**A.** 26.1 µM

**Q.** Which IC50 does the source give for `Oc1ccc(/C=C/c2nc(-c3ccccc3O)n(-c3ccccc3)n2)cc1` here?
**A.** > 100 µM (inactive)

**Q.** `O=C(NNC(=S)NC(=O)C12CC3CC(CC(C3)C1)C2)c1ccncc1` was tested. Which IC50 did it give?
**A.** 19.6 µM

**Q.** For `O=c1oc2ccccc2c(N2CCCC2)c1CN1CCCC1`, which IC50 is on record?
**A.** > 100 µM (inactive)

**Q.** `Cc1ccc(-c2nc3sc(C(N)=O)c(N)c3c3c2CCCC3)cc1` was tested. Which IC50 did it give?
**A.** > 100 µM (inactive)

**Q.** `O/N=C/c1ccc(OCc2ccccc2)c(Br)c1` was tested. Which IC50 did it give?
**A.** > 100 µM (inactive)

**Q.** With `COc1ccc2c(C)nc(Nc3nc(C)c(C)c(=O)[nH]3)nc2c1` as the molecule, how does the IC50 read?
**A.** 15 µM

**Q.** Which IC50 does the source give for `Nc1c(C(=O)NCCc2ccccc2)c2nc3ccccc3nc2n1CCN1CCOCC1` here?
**A.** 22.3 µM

**Q.** With `Cc1ccc(-c2nn(C(C)(C)C)c3ncnc(N)c23)cc1` as the molecule, how does the IC50 read?
**A.** 1.72 µM
